From publication PMC12530842, “Potent, Selective, and Drug‐Like G Protein‐Coupled Receptor Kinase 5 and 6 Inhibitors: Design, Synthesis, and X‐Ray Structural Studies” (Chemmedchem, 2025)

Key:
Type in all cases: biochemical
GRK6 = target: T1, GRK6 (Homo sapiens, UniProt P43250, C561S/C562S/C565S/T10A); experiment: GRK6 kinase inhibition assay, phosphorylation of tubulin ([γ-32P]-ATP); conditions: for Selectivity GRK5/GRK6: fold selectivity for GRK6 over GRK5; for IC50: phosphorylation of the soluble substrate tubulin, ± standard deviation from 3 to 4 independent experiments
T1 construct: His tag (inferred: purified by the GRK5 protocol, which starts with nickel-NTA); made in house; host or cells: Sf9 insect cells
T1 sequence (P43250 whole entry T10A/C561S/C562S/C565S): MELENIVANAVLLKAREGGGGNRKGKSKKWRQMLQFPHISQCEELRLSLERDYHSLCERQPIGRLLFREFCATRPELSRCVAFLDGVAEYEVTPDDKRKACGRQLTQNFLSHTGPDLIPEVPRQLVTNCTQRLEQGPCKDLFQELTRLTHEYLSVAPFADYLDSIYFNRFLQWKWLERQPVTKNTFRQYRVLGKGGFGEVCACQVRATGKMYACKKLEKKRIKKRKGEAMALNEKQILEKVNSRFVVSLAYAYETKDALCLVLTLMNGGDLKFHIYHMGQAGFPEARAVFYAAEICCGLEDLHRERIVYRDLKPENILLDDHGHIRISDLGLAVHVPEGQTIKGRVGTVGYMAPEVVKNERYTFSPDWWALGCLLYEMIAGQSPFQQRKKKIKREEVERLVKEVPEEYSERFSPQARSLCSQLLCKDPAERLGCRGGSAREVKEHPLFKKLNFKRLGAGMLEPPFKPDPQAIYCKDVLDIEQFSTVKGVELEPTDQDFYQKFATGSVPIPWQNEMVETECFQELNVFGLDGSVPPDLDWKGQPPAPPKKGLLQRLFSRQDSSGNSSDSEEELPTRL
Procedure: (§1) The inhibitory potency of synthetic compounds containing the N‐heterocyclic amide functionalities was evaluated against human GRK2, GRK5 and GRK6 using our in vitro assays‐, as reported previously.^[ [35], [37] ^] […] We then investigated the effect of (R)‐ and (S)‐Boc pyrrolidine carboxamide derivatives. […] These improvements of GRK5 IC50 values over their Boc‐derivatives (6c and 6d) indicated the bulky Boc group may not be able to fit as well in the catalytic site of these GRKs. On the other hand, sterically less demanding acetamide derivatives 6e and 6f were well accommodated consistent with their very good activity against GRK5, GRK6, and GRK2, but only with marginal selectivity against GRK2. […] We also examined the effect of 3(S)‐ and 3(R)‐Boc‐pyrrolidine derivatives.
(§2) Protein expression and purification.
(§3) Human GR K5 (residues 1- 590) w ild- type and D 311N mutant w ere expressed in E. co li Rosetta (D E3) and purified v ia nickel-nitrilotriacetic acid affinity chromatography, followed by tandem columns consisting of a HiTrap Q HP anion exchange chromatography column and a HiTrap SP HP cation exchange chromatography column, and finished by Superdex 200 Increase size -exclusion chromatography, as described previously. Human GRK6 (with T10A and mutations that eliminate palmitoylation sites) was expressed in Sf9 insect cells [ 2] and was purified w ith the same protocol for GR K5 [1]. Human GRK2 w as purified as described previously.
(§4) Kinase inhibition Assays.
(§5) Inhibit ion assays were conducted in a reaction mixture containing 20 mM H EPES pH 7. 0, 2 mM MgC l2, and 0.025% n- dodecyl-β-D-maltoside. Prior to reaction initiation, GR K5 or GR K6 at 50 nM was mixed w ith porcine brain tubulin ( PurSolutions) at a concentration of 500 nM. The assay w as started w ith a 30- second incubation of inhibitors, followed by the add it ion of 5 μ M ATP supplemented w ith radioactive [γ-32P]-AT P a t 60 C i/m mol (PerkinElm er Life Sciences). Re actions pro ceeded for 5 m inut es at ro o m te mpera ture a nd were terminated by adding 4X SDS loading buffer. T he reaction mixtures were then s eparated via SDS - PAG E, dried, and exposed using a phosphor imaging screen. Quantification was performed using a Personal Molecular Imager and Quantity One 1- D Analysis Software. Analogous inhibition assays were conducted on p urified GR K2 wit h a t ub ulin conce ntrat ion of 1 μ M. Data ana lysis was perf orme d usin g Graph Pa d Pr ism, and IC50 values wer e calculated based on three- parameter dose- dependent curves (with a Hill coefficient fixed at 1) plotting phosphate transfer against inhibitor concentration. At least three replicates were conducted to determine the mean and standard deviation of IC50 values as published previously . […]
(§6) (6) The final models w ere validated with MolProbity prior to depos ition along with structure factors in the Protein Data Bank. Atomic figures were created with Py mol (7). Cr ystallographic statistics are reported in Supplemental Table 1. Coordinates for inh ib itor 6t (GRL-098- 22) w ere deposited in the Protein Data Bank, with accession code 9BR K.
(§7) 1. Y. Chen, A. Sonawane, R. Manda, R. K. G adi, J. J. G. Tesmer, A. K. Ghosh. Development of a new class of potent and highly select ive G protein- coupled r eceptor kinase 5 inhibitors and structural insight from crystal structures of inhibitor complexes. Eur. J. Med. Chem. 2024, 264, 115931.
(§8) 2. D. T. Lodowski, V. M. T esmer, J. L. Benovic, J. J. Tesmer. The structure of G protein- coupled receptor kinase (GRK)-6 defines a second lineage of GRKs. J. Bio l. C he m. 2006, 281,16785- 16793.

GRK5 = target: T2, GRK5 (Homo sapiens, UniProt P34947); experiment: GRK5 kinase inhibition assay, phosphorylation of tubulin ([γ-32P]-ATP); conditions: for Selectivity GRK2/GRK5: fold selectivity for GRK5 over GRK2; for IC50: phosphorylation of the soluble substrate tubulin, ± standard deviation from 3 to 4 independent experiments
T2 construct: Human GR K5 (residues 1- 590) w ild- type and D 311N mutant w ere expressed in E. co li Rosetta; His tag (inferred from nickel-NTA purification); made in house; host or cells: E. coli Rosetta (DE3)
T2 sequence (P34947 whole entry, the tested form may be a part): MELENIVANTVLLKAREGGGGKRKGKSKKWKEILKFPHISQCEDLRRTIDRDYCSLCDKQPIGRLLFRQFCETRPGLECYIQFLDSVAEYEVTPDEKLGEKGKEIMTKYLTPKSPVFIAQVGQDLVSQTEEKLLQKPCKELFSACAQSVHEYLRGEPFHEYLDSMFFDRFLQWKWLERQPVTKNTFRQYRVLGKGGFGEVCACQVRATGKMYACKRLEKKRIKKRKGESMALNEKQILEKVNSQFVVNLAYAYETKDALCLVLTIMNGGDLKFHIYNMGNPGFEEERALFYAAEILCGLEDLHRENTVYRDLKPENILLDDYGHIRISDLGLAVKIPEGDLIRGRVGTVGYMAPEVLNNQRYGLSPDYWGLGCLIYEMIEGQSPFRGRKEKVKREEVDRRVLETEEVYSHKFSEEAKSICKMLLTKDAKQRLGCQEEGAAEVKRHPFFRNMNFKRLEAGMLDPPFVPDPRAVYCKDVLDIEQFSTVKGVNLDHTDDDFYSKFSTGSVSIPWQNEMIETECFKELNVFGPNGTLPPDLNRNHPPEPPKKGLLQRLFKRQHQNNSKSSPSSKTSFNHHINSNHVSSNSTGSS
Procedure: as §1, §2, §3, §4, §5, §6, §7, §8

GRK2 = target: T3, GRK2 (Homo sapiens, UniProt P25098); experiment: GRK2 kinase inhibition assay, phosphorylation of tubulin ([γ-32P]-ATP); conditions: for IC50: phosphorylation of the soluble substrate tubulin, ± standard deviation from 3 to 4 independent experiments
T3 construct: made in house
T3 sequence (P25098 1-689): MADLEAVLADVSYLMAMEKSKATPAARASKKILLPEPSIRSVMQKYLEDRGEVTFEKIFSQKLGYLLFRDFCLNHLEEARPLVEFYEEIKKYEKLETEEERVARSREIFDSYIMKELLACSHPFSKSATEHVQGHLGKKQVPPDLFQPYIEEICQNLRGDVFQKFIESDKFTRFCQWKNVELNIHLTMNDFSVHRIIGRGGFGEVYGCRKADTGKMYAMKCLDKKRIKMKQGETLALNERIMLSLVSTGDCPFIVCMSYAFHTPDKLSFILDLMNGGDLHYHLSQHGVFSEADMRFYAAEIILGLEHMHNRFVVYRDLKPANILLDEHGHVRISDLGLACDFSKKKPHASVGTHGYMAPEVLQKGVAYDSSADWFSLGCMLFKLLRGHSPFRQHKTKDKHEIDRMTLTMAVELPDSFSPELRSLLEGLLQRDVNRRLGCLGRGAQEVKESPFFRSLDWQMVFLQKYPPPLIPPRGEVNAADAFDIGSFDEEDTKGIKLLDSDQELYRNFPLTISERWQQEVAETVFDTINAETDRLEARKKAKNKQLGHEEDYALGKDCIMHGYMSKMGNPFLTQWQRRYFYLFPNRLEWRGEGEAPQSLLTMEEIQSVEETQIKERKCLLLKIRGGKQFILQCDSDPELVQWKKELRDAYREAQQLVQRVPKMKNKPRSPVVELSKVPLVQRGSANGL
Procedure: as §1, §2, §3, §4, §5, §6, §7, §8

SMILES | Selectivity GRK5/GRK6 (GRK6) [fold] | IC50 (GRK6) [µM] | Selectivity GRK2/GRK5 (GRK5) [fold] | IC50 (GRK5) [µM] | IC50 (GRK2) [µM] | fold reduction of GRK5 activity (GRK5; in comparison with compound 6a) [fold] | selectivity over GRK2 (GRK5; GRK5 vs GRK2, as stated in text) | GRK6 IC50 (in words) (GRK6) | GRK5 IC50 (in words) (GRK5) | activity against GRK2 (in words) (GRK2)
Cc1[nH]c(/C=C2\C(=O)Nc3ccc(C(=O)N[C@H](C)c4ccc(F)cc4)cc32)c(C)c1NC(=O)[C@H]1CCCN(C(=O)OC(C)(C)C)C1 [6o, Tert‐Butyl(S)‐3‐((5‐(((Z)‐5‐(((R)‐1‐(4‐Fluorophenyl)Ethyl)Carbamoyl)‐2‐Oxoindolin‐3‐Ylidene)Methyl)‐2,4‐Dimethyl‐1H‐Pyrrol‐3‐Yl)Carbamoyl)Piperidine‐1‐Carboxylate] | 1 | 0.15 ± 0.06 | 66 | 0.094 ± 0.01 | 6.2 ± 3 |  |  |  |  | 
Cc1[nH]c(/C=C2\C(=O)Nc3ccc(C(=O)N[C@H](C)c4ccc(F)cc4)cc32)c(C)c1NC(=O)[C@@H]1CCCCN1C(=O)OC(C)(C)C [6n, Tert‐Butyl(S)‐2‐((5‐(((Z)‐5‐(((R)‐1‐(4‐Fluorophenyl)Ethyl)Carbamoyl)‐2‐Oxoindolin‐3‐Ylidene)Methyl)‐2,4‐Dimethyl‐1H‐Pyrrol‐3‐Yl)Carbamoyl)Piperidine‐1‐Carboxylate] | 37 | 0.9 ± 0.8 | 3 | 33 ± 6 | 100 ± 70 |  |  |  |  | 
Cc1[nH]c(/C=C2\C(=O)Nc3ccc(C(=O)N[C@H](C)c4ccc(F)cc4)cc32)c(C)c1NC(=O)[C@@H]1CCCN(C(=O)OC(C)(C)C)C1 [6p, Tert‐Butyl(R)‐3‐((5‐(((Z)‐5‐(((R)‐1‐(4‐Fluorophenyl)Ethyl)Carbamoyl)‐2‐Oxoindolin‐3‐Ylidene)Methyl)‐2,4‐Dimethyl‐1H‐Pyrrol‐3‐Yl)Carbamoyl)Piperidine‐1‐Carboxylate] | 1 | 0.34 ± 0.3 | 1500 | 0.41 ± 0.1 | 610 ± 450 |  | over 1500 fold |  |  | 
Cc1[nH]c(/C=C2\C(=O)Nc3ccc(C(=O)N[C@H](C)c4ccc(F)cc4)cc32)c(C)c1NC(=O)[C@@H]1CCN(C(=O)OC(C)(C)C)C1 [6k, Tert‐Butyl(R)‐3‐((5‐(((Z)‐5‐(((R)‐1‐(4‐Fluorophenyl)Ethyl)Carbamoyl)‐2‐Oxoindolin‐3‐Ylidene)Methyl)‐2,4‐Dimethyl‐1H‐Pyrrol‐3‐Yl)Carbamoyl)Pyrrolidine‐1‐Carboxylate] | 1 | 1.4 ± 0.2 | 140 | 2.1 ± 0.9 | 300 ± 100 |  |  | low micromolar range | low micromolar range | little to no activity
Cc1[nH]c(/C=C2\C(=O)Nc3ccc(C(=O)N[C@H](C)c4ccc(F)cc4)cc32)c(C)c1NC(=O)[C@H]1CCCN1C(=O)OC(C)(C)C [6c, Tert‐Butyl(R)‐2‐((5‐(((Z)‐5‐(((R)‐1‐(4‐Fluorophenyl)Ethyl)Carbamoyl)‐2‐Oxoindolin‐3‐Ylidene)Methyl)‐2,4‐Dimethyl‐1H‐Pyrrol‐3‐Yl)Carbamoyl)Pyrrolidine‐1‐Carboxylate] | 35 | 1.4 ± 0.5 | >3 | 50 ± 30 | 160 ± 100 |  |  |  |  | 

Results, then the compound that gave them:

Selectivity GRK5/GRK6 (GRK6) [fold] | IC50 (GRK6) [µM] | Selectivity GRK2/GRK5 (GRK5) [fold] | IC50 (GRK5) [µM] | IC50 (GRK2) [µM] | fold reduction of GRK5 activity (GRK5; in comparison with compound 6a) [fold] | selectivity over GRK2 (GRK5; GRK5 vs GRK2, as stated in text) | GRK6 IC50 (in words) (GRK6) | GRK5 IC50 (in words) (GRK5) | activity against GRK2 (in words) (GRK2) | SMILES
30 | 0.028 ± 0.002 | 3 | 0.8 ± 0.4 | 2.1 ± 0.2 | 30 |  |  |  |  | Cc1[nH]c(/C=C2\C(=O)Nc3ccc(C(=O)N[C@H](C)c4ccc(F)cc4)cc32)c(C)c1NC(=O)[C@H]1CCC(=O)N1 [6b, (Z)‐3‐((3,5‐Dimethyl‐4‐((R)‐5‐Oxopyrrolidine‐2‐Carboxamido)‐1H‐Pyrrol‐2‐Yl)Methylene)‐N‐((R)‐1‐(4‐Fluorophenyl)Ethyl)‐2‐Oxoindoline‐5‐Carboxamide]
3 | 0.034 ± 0.01 | 1 | 0.09 ± 0.04 | 0.08 ± 0.01 |  |  |  |  |  | Cc1[nH]c(/C=C2\C(=O)Nc3ccc(C(=O)N[C@H](C)c4ccc(F)cc4)cc32)c(C)c1NC(=O)[C@@H]1CCCN1 [6h, (Z)‐3‐((3,5‐Dimethyl‐4‐((S)‐pyrrolidine‐2‐carboxamido)‐1H‐pyrrol‐2‐yl)methylene)‐N‐((R)‐1‐(4‐fluorophenyl)ethyl)‐2‐oxoindoline‐5‐carboxamide]
1 | 0.03 ± 0.002 | 3 | 0.04 ± 0.02 | 0.1 ± 0.01 |  |  |  |  |  | Cc1[nH]c(/C=C2\C(=O)Nc3ccc(C(=O)N[C@H](C)c4ccc(F)cc4)cc32)c(C)c1NC(=O)[C@H]1CCCN1 [6g, (Z)‐3‐((3,5‐Dimethyl‐4‐((R)‐Pyrrolidine‐2‐Carboxamido)‐1H‐Pyrrol‐2‐yl)Methylene)‐N‐((R)‐1‐(4‐Fluorophenyl)Ethyl)‐2‐Oxoindoline‐5‐Carboxamide]
7 | 0.09 | >1600 | 0.6 ± 0.1 | > 1000 |  |  |  |  |  | Cc1[nH]c(/C=C2\C(=O)Nc3ccc(C(=O)N[C@H](C)c4ccc(F)cc4)cc32)c(C)c1NC(=O)[C@@H]1CN(C(=O)OC(C)(C)C)CCN1 [6t, Tert‐Butyl(S)‐3‐((5‐(((Z)‐5‐(((R)‐1‐(4‐Fluorophenyl)Ethyl)Carbamoyl)‐2‐Oxoindolin‐3‐Ylidene)Methyl)‐2,4‐Dimethyl‐1H‐Pyrrol‐3‐Yl)Carbamoyl)Piperazine‐1‐Carboxylate]
2 | 0.016 ± 0.003 | 4 | 0.03 ± 0.02 | 0.11 ± 0.02 |  |  |  |  |  | Cc1[nH]c(/C=C2\C(=O)Nc3ccc(C(=O)N[C@H](C)c4ccc(F)cc4)cc32)c(C)c1NC(=O)[C@H]1CCCNC1 [6q, (Z)‐3‐((3,5‐Dimethyl‐4‐((S)‐Piperidine‐3‐Carboxamido)‐1H‐Pyrrol‐2‐Yl)Methylene)‐N‐((R)‐1‐(4‐Fluorophenyl)Ethyl)‐2‐Oxoindoline‐5‐Carboxamide]
1 | 0.06 ± 0.02 | 8 | 0.04 ± 0.006 | 0.32 ± 0.09 |  |  |  |  |  | CC(=O)N1CCC[C@@H]1C(=O)Nc1c(C)[nH]c(/C=C2\C(=O)Nc3ccc(C(=O)N[C@H](C)c4ccc(F)cc4)cc32)c1C [6e, (Z)‐3‐((4‐((R)‐1‐Acetylpyrrolidine‐2‐Carboxamido)‐3,5‐Dimethyl‐1H‐Pyrrol‐2‐Yl)Methylene)‐N‐((R)‐1‐(4‐Fluorophenyl)Ethyl)‐2‐Oxoindoline‐5‐Carboxamide]
